IC50 data for 16 molecules are collected here from patent US11976083B2, “Inhibitors of peptidylarginine deiminases” (Gilead Sciences, Inc., priority 2020, dated 2024).

What is called IC50 is the concentration needed to halve the response being measured.

The target of the experiment is T1, human PAD4 (Homo sapiens, UniProt Q9UM07).
T1 construct: human PAD4 (NM_012387), A2-P663, was PCR amplified; His-SUMO (N, cleaved yes); made in house; host or cells: E. coli BL21(DE3)
T1 sequence (Q9UM07 2-663): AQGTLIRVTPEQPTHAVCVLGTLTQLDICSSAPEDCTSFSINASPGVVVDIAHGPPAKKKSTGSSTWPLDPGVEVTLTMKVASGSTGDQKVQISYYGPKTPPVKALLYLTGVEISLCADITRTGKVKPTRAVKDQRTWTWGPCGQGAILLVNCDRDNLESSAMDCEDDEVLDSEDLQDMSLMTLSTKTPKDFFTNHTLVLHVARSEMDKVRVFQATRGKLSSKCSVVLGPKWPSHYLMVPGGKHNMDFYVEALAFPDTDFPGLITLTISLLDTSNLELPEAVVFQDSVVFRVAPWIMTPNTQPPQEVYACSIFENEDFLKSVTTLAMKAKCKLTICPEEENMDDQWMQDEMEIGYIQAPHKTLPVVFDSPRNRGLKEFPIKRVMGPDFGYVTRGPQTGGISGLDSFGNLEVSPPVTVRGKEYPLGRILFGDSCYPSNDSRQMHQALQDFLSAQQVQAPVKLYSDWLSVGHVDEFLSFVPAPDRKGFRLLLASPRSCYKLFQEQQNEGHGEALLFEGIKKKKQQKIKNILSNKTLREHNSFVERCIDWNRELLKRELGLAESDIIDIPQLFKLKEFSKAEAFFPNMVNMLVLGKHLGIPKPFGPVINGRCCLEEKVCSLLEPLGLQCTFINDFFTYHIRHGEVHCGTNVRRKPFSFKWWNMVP
The experiment is described as follows: In vitro PAD4 BAEE biochemical assay. The settings on record: BAEE substrate 3 mM, 5 nM PAD4, 2 mM calcium chloride; geometric mean of multiple experiments. The gist of the method: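 Fluorescence read-out (ex 405/em 535 nm) of isoindole formed from ammonia, o-phthalaldehyde and DTT after EDTA stop. Reaction: 5 nM PAD4, 2 mM CaCl2, 3 mM BAEE, 2 h, 25 °C, after 30 min enzyme–compound preincubation. Normalised to BB-Cl-Amidine (50 µM) and DMSO controls.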
`COc1cc(C(=O)N2C[C@H](N)[C@@H]3CC[C@H]2C3)cc2nc(-c3cc4ccc5nc4n3CC(F)(F)CCCc3ccccc3C(=O)N[C@@H]5C)n(C)c12` [Example 716, (2~{R})-17-[5-[(1~{S},4~ {R},5~{R})-4-amino-2-azabicyclo[3.2.1]octane-2-carbonyl]-7-methoxy-1-methyl-benzimidazol-2-yl]-14,14-difluoro-2-methyl-3,16,22-triazatetracyclo [14.5.2.0^{5,10}.0^{19,23}] tricosa-1(22),5(10),6,8,17, 19(23),20-heptaen-4-one]: the IC50 amounted to 0.013 µM.

For the molecule `C[C@H]1NC(=O)[C@@H]2C[C@@]2(F)CCCCCn2c(-c3nc4cc(C(=O)N5C[C@H](N)[C@@H]6CC[C@H]5C6)cc(F)c4n3C)cc3ccc1nc32` [Example 717, (2~{R},5~{S},7~{S})-14-[5-[(1~{S},4~{R},5~{R})-4-amino-2-azabicyclo[3.2.1]octane-2-carbonyl]-7-fluoro-1-methyl-benzimidazol-2-yl]-7-fluoro-2-methyl-3,13,19-triazatetracyclo [11.5.2.0^{5,7}.0^{16,20}] icosa-1(19),14,16(20), 17-tetraen-4-one], the IC50 turned out to be 0.011 µM.

In the case of `COc1cc(C(=O)N2CC[C@@H](OC)[C@@H](N)C2)cc2nc(-c3cc4ccc5nc4n3CCCCCC[C@@](C)(C(F)(F)F)C(=O)N[C@@H]5C)n(C)c12` [Example 719, (8~{R},11~{R})-17-[5-[(3~{S},4~{R})-3-amino-4-methoxy-piperidine-1-carbonyl]-7-methoxy-1-methyl-benzimidazol-2-yl]-8,11-dimethyl-8-(trifluoromethyl)-1,10,19-triazatricyclo[10.5.2.0^ {15,18}]nonadeca-12(19),13,15(18),16-tetraen-9-one], the IC50 was 0.091 µM.

Regarding `COc1cc(C(=O)N2CC[C@@H](OC)[C@@H](N)C2)cc2nc(-c3cc4ccc5nc4n3CCCCCC[C@](C)(C(F)(F)F)C(=O)N[C@@H]5C)n(C)c12` [Example 720, (8~{S},11~{R})-17-[5-[(3~ {S},4~{R})-3-amino-4-methoxy-piperidine-1-carbonyl]-7-methoxy-1-methyl-benzimidazol-2-yl]-8,11-dimethyl-8-(trifluoromethyl)-1,10,19-triazatricyclo[10.5.2.0^ {15,18}]nonadeca-12(19),13,15(18),16-tetraen-9-one], the IC50 amounted to 0.065 µM.

Consider `COc1cc(C(=O)N2C[C@H]3CC[C@@H]2[C@@H]3N)cc2nc(-c3cc4ccc5nc4n3CCCCCC[C@@](C)(C(F)(F)F)C(=O)N[C@@H]5C)n(C)c12` [Example 722, (8~{R},11~{R})-17-[5-[(1~{R},4~{R},7~{R})-7-amino-2-azabicyclo [2.2.1]heptane-2-carbonyl]-7-methoxy-1-methyl-benzimidazol-2-yl]-8,11-dimethyl-8-(trifluoromethyl)-1,10,19-triazatricyclo [10.5.2.0^{15,18}]nonadeca-12(19),13,15(18),16-tetraen-9-one], for which the IC50 amounted to 0.174 µM.

`COc1cc(C(=O)N2CC[C@@H](OC(F)F)[C@@H](N)C2)cc2nc(-c3cc4ccc5nc4n3CCCCCC[C@@](C)(C(F)(F)F)C(=O)N[C@@H]5C)n(C)c12` [Example 723, (8~{R},11~{R})-17-[5-[(3~ {S},4~{R})-3-amino-4-(difluoromethoxy)piperidine-1-carbonyl]-7-methoxy-1-methyl-benzimidazol-2-yl]-8,11-dimethyl-8-(trifluoromethyl)-1,10,19-triazatricyclo[10.5.2.0^ {15,18}]nonadeca-12(19), 13,15(18),16-tetraen-9-one]: the IC50 worked out at 0.309 µM.

With `COc1cc(C(=O)N2C[C@H]3CC[C@@H]2[C@@H]3N)cc2nc(-c3cc4ccc5nc4n3CCCCCC[C@](C)(C(F)(F)F)C(=O)N[C@@H]5C)n(C)c12` [Example 724, (8~{S},11~{R})-17-[5-[(1~{R},4~{R},7~{R})-7-amino-2-azabicyclo[2.2.1]heptane-2-carbonyl]-7-methoxy-1-methyl-benzimidazol-2-yl]-8,11-dimethyl-8-(trifluoromethyl)-1,10,19-triazatricyclo [10.5.2.0^{15,18}]nonadeca-12(19),13,15(18),16-tetraen-9-one], the IC50 was found to be 0.094 µM.

In the case of `COc1cc(C(=O)N2CC[C@@H](OC(F)F)[C@@H](N)C2)cc2nc(-c3cc4ccc5nc4n3CCCCCC[C@](C)(C(F)(F)F)C(=O)N[C@@H]5C)n(C)c12` [Example 725, (8~{S},11~{R})-17-[5-[(3~ {S},4~{R})-3-amino-4-(difluoromethoxy)piperidine-1-carbonyl]-7-methoxy-1-methyl-benzimidazol-2-yl]-8,11-dimethyl-8-(trifluoromethyl)-1,10,19-triazatricyclo[10.5.2.0^ {15,18}]nonadeca-12(19),13,15(18),16-tetraen-9-one], the IC50 was found to be 0.136 µM.

Regarding `COc1cc(C(=O)N2[C@H]3CC[C@@H]2[C@H](N)[C@H](OC)C3)cc2nc(-c3cc4ccc5nc4n3CC(F)(F)CCC[C@@H]3C[C@H]3C(=O)N[C@@H]5C)n(C)c12` [Example 726, (2~{R},5~{R},7~{R})-14-[5-[(1~{R},2~{S},3~{R}, 5~{S})-2-amino-3-methoxy-8-azabicyclo[3.2.1]octane-8-carbonyl]-7-methoxy-1-methyl-benzimidazol-2-yl]-11,11-difluoro-2-methyl-3,13,19-triazatetracyclo[11.5.2.0^ {5,7}.0^{16,20}] icosa-1(19),14,16(20), 17-tetraen-4-one], the IC50 is 0.023 µM.

In the case of `COc1cc(C(=O)N2CC[C@@H](OC)[C@@H](N)C2)cc2nc(-c3cc4ccc5nc4n3CC(F)(F)CCCC[C@@](C)(C(F)(F)F)C(=O)N[C@@H]5C)n(C)c12` [Example 727, (8~{R},11~{R})-17-[5-[(3~{S), 4~{R})-3-amino-4-methoxy-piperidine-1-carbonyl]-7-methoxy-1-methyl-benzimidazol-2-yl]-3,3-difluoro-8,11-dimethyl-8-(trifluoromethyl)-1,10,19-triazatricyclo[10.5.2.0^ {15,18}]nonadeca-12(19),13,15(18),16-tetraen-9-one], the IC50 is 0.093 µM.

With `COc1cc(C(=O)N2C[C@H](N)C[C@@H](F)C2)cc2nc(-c3cc4ccc5nc4n3CC(F)(F)CCCC[C@@](C)(C(F)(F)F)C(=O)N[C@@H]5C)n(C)c12` [Example 728, (8~{R},11~{R})-17-[5-[(3~ {R},5~{R})-3-amino-5-fluoro-piperidine-1-carbonyl]-7-methoxy-1-methyl-benzimidazol-2-yl]-3,3-difluoro-8,11-dimethyl-8-(trifluoromethyl)-1,10,19-triazatricyclo[10.5.2.0^ {15,18}]nonadeca-12(19),13,15(18),16-tetraen-9-one], the IC50 was found to be 0.075 µM.

`CO[C@@H]1CCN(C(=O)c2cc3c4c(c2)nc(-c2cc5ccc6nc5n2CCCCC[C@@H]2C[C@H]2C(=O)N[C@@H]6C)n4CCO3)C[C@@H]1N` [Example 729, (2~{R},5~{R},7~{R})-14-[6-[(3~{S},4~{R})-3-amino-4-methoxy-piperidine-1-carbonyl]-9-oxa-1,3-diazatricyclo [6.3.1.0^{4,12}]dodeca-2,4,6,8(12)-tetraen-2-yl]-2-methyl-3,13,19-triazatetracyclo[11.5.2.0^ {5,7}.0^{16,20}] icosa-1(19),14,16(20),17-tetraen-4-one]: the IC50 is 0.307 µM.

With `COc1cc(C(=O)N2CC[C@@H](OC(F)F)[C@@H](N)C2)cc2nc(-c3cc4ccc5nc4n3CC(F)(F)CCCC[C@@](C)(C(F)(F)F)C(=O)N[C@@H]5C)n(C)c12` [Example 730, (8~{R},11~{R})-17-[5-[(3~ {S},4~{R})-3-amino-4-(difluoromethoxy)piperidine-1-carbonyl]-7-methoxy-1-methyl-benzimidazol-2-yl]-3,3-difluoro-8,11-dimethyl-8-(trifluoromethyl)-1,10,19-triazatricyclo [10.5.2.0^{15,18}]nonadeca-12(19),13,15(18),16-tetraen-9-one], the IC50 worked out at 0.27 µM.

`COc1cc(C(=O)N2CC[C@@H](OC)[C@@H](N)C2)cc2nc(-c3cc4ccc5nc4n3CCCCCc3cc4ccccc4nc3C(=O)N[C@@H]5C)n(C)c12` [Example 731, (2~{R})-21-[5-[(3~{S},4~{R})-3-amino-4-methoxy-piperidine-1-carbonyl]-7-methoxy-1-methyl-benzimidazol-2-yl]-2-methyl-3,6,20,26-tetrazapentacyclo[18.5.2.0^ {5,14}.0^{7,12}.0^{23,27}] heptacosa-1(26),5(14), 6,8,10,12,21,23(27),24-nonaen-4-one]: the IC50 is 0.14 µM.

On to `COc1cc(C(=O)N2CC[C@@H](OC(F)F)[C@@H](N)C2)cc2nc(-c3cc4ccc5nc4n3CCCCCc3cc4ccccc4nc3C(=O)N[C@@H]5C)n(C)c12` [Example 732, (2~{R})-21-[5-[(3~{S},4~{R})-3-amino-4-(difluoromethoxy)piperidine-1-carbonyl]-7-methoxy-1-methyl-benzimidazol-2-yl]-2-methyl-3,6,20,26-tetrazapentacyclo[18.5.2.0^ {5,14}.0^{7,12}.0^{23,27}] heptacosa-1(26),5(14),6,8,10, 12,21,23(27),24-nonaen-4-one], for which the IC50 came to 0.214 µM.

In the case of `COc1cc(C(=O)N2CC[C@@H](OC)[C@@H](N)C2)cc2nc(-c3cc4ccc5nc4n3CC(F)(F)CCCC[C@](C)(C(F)(F)F)C(=O)N[C@@H]5C)n(C)c12` [Example 733, (8~{S},11~{R})-17-[5-[(3~ {S},4~{R})-3-amino-4-methoxy-piperidine-1-carbonyl]-7-methoxy-1-methyl-benzimidazol-2-yl]-3,3-difluoro-8,11-dimethyl-8-(trifluoromethyl)-1,10,19-triazatricyclo[10.5.2.0^ {15,18}]nonadeca-12(19),13,15(18),16-tetraen-9-one], the half-inhibitory concentration (IC50) was determined as 0.096 µM.
